# Data as given in the supplement of paper PMC10307832.
# What was measured:
# BAM7 = compound: CCOC1=CC=CC=C1N=NC2=C(NN(C2=O)C3=NC(=CS3)C4=CC=CC=C4)C [BAM7]; experiment: relative viability (nuclei count vs DMSO), 5 days (fraction); higher = more cells survive
# Summary of the method: (§1)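 In 1536-well plates, lung cancer cell lines rested overnight at 37 °C before five library-drug doses (not always all listed), √10 apart, were pinned onto vehicle-anchored plates. Nuclei were counted with MetaXpress from 4× Hoechst images taken after 5 days without medium change. Viability compares treated-well with vehicle-well nuclei as a median over plates, and plates needed control CV below 25% plus at least one doubling to pass.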
# [1] = compound: CCn1c(-c2nonc2N)nc2c(C#CC(C)(C)O)ncc(OC[C@H]3CCCNC3)c21; experiment: as above
# Summary of the method: as §1
Cell Line,relative viability (BAM7; 0.5 µM),relative viability (BAM7; 5 µM),relative viability (BAM7; 15.81 µM),relative viability (BAM7; 50 µM),relative viability ([1]; 0.01 µM),relative viability ([1]; 0.03162 µM),relative viability ([1]; 0.1 µM),relative viability ([1]; 0.3162 µM),relative viability ([1]; 1 µM)
201T,0.918,0.865,0.793,0.861,0.95,0.987,0.959,0.952,0.986
A549,1.01,1.07,0.948,1.03,0.934,0.995,0.996,0.896,0.951
A-427,1.05,1.08,1,1.09,0.994,1.06,0.918,0.965,1.08
ABC-1,0.919,1.05,0.855,1.14,0.934,0.869,0.864,0.768,0.696
BEN,1.04,1.05,1.11,0.981,0.988,1.03,0.735,0.935,0.962
CAL-12T,1.05,1.01,0.952,1.07,1.12,0.997,0.94,0.973,0.997
COR-L23,0.982,1.07,0.966,1.01,0.991,1.04,0.986,0.973,1.04
COR-L 105,0.833,0.909,0.95,1.14,0.919,0.961,1.01,0.843,1.04
Calu-6,1.07,1.06,0.989,0.995,0.995,1.02,1.02,0.982,1.03
ChaGo-K-1,0.966,1.02,1.01,0.92,0.965,0.988,0.972,0.936,1
EBC-1,1.05,1.04,0.952,1.06,0.986,0.963,0.973,0.883,0.757
EKVX,1.05,0.982,0.843,0.86,0.962,0.942,0.97,0.933,0.924
EMC-BAC-2,1.03,1.08,1.22,1.02,0.919,0.725,0.933,0.937,1.04
EPLC-272H,0.989,0.95,0.95,0.995,0.874,0.936,0.869,0.91,0.87
H3255,0.99,1.02,0.963,0.995,0.924,0.949,0.998,0.856,0.904
HARA,0.942,1.01,0.836,0.986,0.85,0.97,0.722,0.876,0.778

Cell Line,relative viability (BAM7; 0.5 µM),relative viability (BAM7; 5 µM),relative viability (BAM7; 15.81 µM),relative viability (BAM7; 50 µM),relative viability ([1]; 0.01 µM),relative viability ([1]; 0.03162 µM),relative viability ([1]; 0.1 µM),relative viability ([1]; 0.3162 µM),relative viability ([1]; 1 µM)
HCC-15,1.01,1.01,0.97,0.927,0.959,1.02,1.04,0.952,0.914
HCC-44,0.923,0.997,1.02,1.01,0.951,0.852,0.979,0.974,0.993
HCC-78,1.06,0.879,1.07,1.04,0.882,0.926,0.971,0.962,0.844
HCC-366,1.04,1.04,1.03,1.02,0.993,1.05,0.805,0.998,0.99
HCC-827,1.04,1.05,1.06,1.03,1.06,1.03,1,0.986,0.99
HOP-62,1.03,1.09,1.07,1.07,0.989,0.945,1.01,0.976,1.01
IA-LM,0.988,0.979,0.85,1.15,1.01,1.05,1.01,0.852,0.853
LC-2-ad,0.961,1,0.939,1.01,0.903,0.951,0.964,0.949,0.989
LCLC-97TM1,1.12,1.12,1.09,1.06,0.989,1.01,1.16,0.854,0.944
LCLC-103H,0.966,1.04,0.983,1.04,0.964,0.988,0.929,0.938,1.09
LK-2,1.03,1.13,1.04,1.1,0.889,1.06,0.815,0.913,0.872
LOU-NH91,0.974,1.06,0.939,0.973,1,0.924,0.989,0.9,0.888
LU99A,1.09,1.02,0.979,1.07,1.07,1.13,0.889,0.854,0.922
LXF-289,1.06,1.07,1.01,0.929,1.03,0.991,1.03,0.972,1.11
NCI-H23,1.21,1.06,1.04,1.06,0.918,0.939,0.878,0.902,0.852
NCI-H322M,0.922,0.96,1,0.991,0.887,0.763,0.839,0.827,0.828
